The values below come from publication PMC8842601, “Antimicrobial, Cytotoxic and Oxidative Stress Inhibitory Activities of Terpenoids and Flavonols from Senegalia nigrescens (Oliv.) P.J.H. Hurter” (Iranian Journal of Pharmaceutical Research : IJPR, 2021).

pIC50: −log10 of the molar value. Values after ≈ are worked out from the molar mass of the structure shown. Bounds are passed on as bounds.

One assay relates to S. aureus. Set-up: method as in PMID 35914415. The following applies: reducing cell surface hydrophobicity and membrane permeability; cited from earlier work.
In another assay the test system is MDA-MB-231 cells. Put plainly: MTT cytotoxicity assay on breast cancer cells. The following applies: for IC50: Homo sapiens, MDA-MB-231 breast cancer cells, MTT, 24 h; for selectivity index (SI): toxicity on RAW264.7 compared to MDA-MB-231 cancer cells. The assay is classed as cell-based, human. How it is done:
(§1) Cytotoxicity and antiproliferative effects of compounds were evaluated against Murine macrophage cells (RAW264.7) and breast adenocarcinoma cancer cells (MDA-MB-231) using the spectrophotometric, 3-(4,5-dimethylthiazol-2-yl)-2,5-diphenyltetrazolium bromide (MTT) assay ([16]). Cells (5 × 10^4 cell/well) were seeded in Dulbecco’s modified eagle’s medium (DMEM; Gibco) in a 96 well plate for 24 h incubation at 37 °C in 5% CO2 and treated with compounds (2.5 - 200 µg/mL) and positive control, Doxorubicin (2.5 - 200 µM). Untreated cells and 5% DMSO treated cells were assayed as negative and solvent control, respectively. After 24 h incubation, 20 µL MTT dye (5 mg/mL) was pipetted in all wells including wells with untreated cells, and incubated for 4 h. The medium was aspirated and 100 µL of DMSO was added to all the wells to dissolve the formazan crystals and the optical density (OD) was measured after an hour at 570 nm using a microplate reader.

For assay [1], the system named is RAW264.7 cells. Put plainly: MTT cytotoxicity assay on normal macrophage cells. The assay is classed as cell-based. As to conditions: Mus musculus, RAW264.7 normal murine macrophage cells, 24 h. How it is done:
as §1
(Tetrazolium assays rely on reduction of a dye to a coloured formazan, in cell work by metabolically active cells.)

The test system of assay [2] is Escherichia coli, Staphylococcus aureus and Candida albicans. Put plainly: Microplate serial dilution MIC assay, stated across the three strains. In kind it is cell-based. The following applies: across the three strains (E. coli, S. aureus, C. albicans). On the procedure: Three microorganisms used in this study, two bacterial strains (Escherichia coli ATCC 25922 - Gram-negative and Staphylococcus aureus ATCC 25923 - Gram-positive) and a fungus (Candida albicans ATCC 10231) were procured from Anatech Instruments (Pty) Ltd, Randburg, Gauteng, South Africa (Anatech, Kwik-stick®). Escherichia coli and S. aureus were cultured in nutrient agar while the fungus (C. albicans ATCC 10231) was cultured on sabouraud dextrose agar (SDA) and incubated for 24 h under aerobic conditions at 37 °C. Pure colonies of microorganisms from the agar were transferred onto nutrient broth and sabouraud dextrose broth (SDB) to obtain an overnight culture. Compounds 1 – 6 were weighed and dissolved in 5% Dimethyl sulfoxide (DMSO) to a final working stock solution of 4 mg/mL. Standard antibiotics Ciprofloxacin and Amphotericin-B were also dissolved in 5% DMSO. The samples were kept at 20 °C in the dark until used. Antimicrobial activity was done using the microplate serial dilution method by Eloff, ([14]). The minimum inhibitory concentration (MIC) was defined as the lowest concentration of the compound capable of inhibiting microbial growth. […] A staining reagent, 50 µL Resazurin sodium salt (0.2 mg/mL) was used as an indicator of microbial growth and the MIC was visually determined ([15]).

The test system of assay [3] is Candida albicans ATCC 10231. Put plainly: Microplate serial dilution MIC assay (resazurin). In kind it is cell-based. The following applies: ATCC10231, C. albicans ATCC 10231, 24 h at 37 °C, tested 7.8-1000 µg/mL. On the procedure:
(§2) Three microorganisms used in this study, two bacterial strains (Escherichia coli ATCC 25922 - Gram-negative and Staphylococcus aureus ATCC 25923 - Gram-positive) and a fungus (Candida albicans ATCC 10231) were procured from Anatech Instruments (Pty) Ltd, Randburg, Gauteng, South Africa (Anatech, Kwik-stick®). Escherichia coli and S. aureus were cultured in nutrient agar while the fungus (C. albicans ATCC 10231) was cultured on sabouraud dextrose agar (SDA) and incubated for 24 h under aerobic conditions at 37 °C. Pure colonies of microorganisms from the agar were transferred onto nutrient broth and sabouraud dextrose broth (SDB) to obtain an overnight culture. Compounds 1 – 6 were weighed and dissolved in 5% Dimethyl sulfoxide (DMSO) to a final working stock solution of 4 mg/mL. Standard antibiotics Ciprofloxacin and Amphotericin-B were also dissolved in 5% DMSO. The samples were kept at 20 °C in the dark until used. Antimicrobial activity was done using the microplate serial dilution method by Eloff, ([14]). The minimum inhibitory concentration (MIC) was defined as the lowest concentration of the compound capable of inhibiting microbial growth. The microorganisms were adjusted according to 0.5 McFarland standard solution to a final concentration of 1.5 × 10^4 CFU/mL in sterile 0.85% sodium chloride (NaCl) solution. Compounds were tested at the concentration range of 7.8-1000 µg/mL in 96 well plates and incubated with microorganisms for 24 h at 37 °C. Ciprofloxacin and Amphotericin-B were used as positive controls for bacterial and fungal assays, respectively. In addition, sterile distilled 5% DMSO was used as a negative control. A staining reagent, 50 µL Resazurin sodium salt (0.2 mg/mL) was used as an indicator of microbial growth and the MIC was visually determined ([15]).
A general note: Resazurin is reduced to fluorescent resorufin, in cell work by metabolically active cells.

For assay [4], the system named is Escherichia coli ATCC 25922. The experiment in a line: Microplate serial dilution MIC assay (resazurin). In kind it is cell-based. As to conditions: ATCC25922, E. coli ATCC 25922, 24 h at 37 °C, tested 7.8-1000 µg/mL. How it is done:
as §2

The test system of assay [5] is Staphylococcus aureus ATCC 25923. The experiment in a line: Microplate serial dilution MIC assay (resazurin). The assay is classed as cell-based. As to conditions: ATCC25923, S. aureus ATCC 25923, 24 h at 37 °C, tested 7.8-1000 µg/mL. On the procedure: as §2
In assay [6] the test system is RAW264.7 cells. Put plainly: LPS-induced intracellular ROS production (H2DCF-DA assay). The assay is classed as cell-based, murine. The following applies: RAW264.7, compound 10 µg/mL, LPS 10 µg/mL; for ROS production level: relative to LPS-treated cells. How it is done: Lipopolysaccharide (LPS)-induced reactive oxygen species (ROS) production was probed using an oxidative cell-permeant fluorescent dye 2',7'-dichlorodihydrofluorescein diacetate (H2DCF-DA) ([17]). RAW264.7 cells (5 × 10^4 cells/well) were seeded overnight into a 96 well plate and treated with compounds (10 µg/mL) at concentrations ≤ IC50 values and LPS (10 µg/mL) for 24 h at 37 °C in 5% CO2 rich incubator, then 10 μM H2DCF-DA dye (100 µL) was added for an hour. The fluorescence intensity which correlates to ROS production was measured on a microplate reader at 485 and 535 nm excitation and emission, respectively. Data obtained were subjected to analysis using GraphPad Prism (version 8.2).
Inflammation is a physiological response stimulated by the organism as a way of overcoming pathogenic events employed as a defense mechanism. However, an unregulated inflammatory response can lead to several diseases, including cancer. ROS-inducing approaches rely on the fact that increasing the ROS level over the cytotoxic threshold can result in cellular impairment, damaging DNA, RNA, proteins and lipids in normal cells, even though macrophage cells cannot phagocytize cancerous cells, but release a reasonable amount of pro-inflammatory cytokines that quench cancer cells yet are cytoprotective to normal cells ([6]). In this regard, it was considered that the compounds tested would be able to reduce the production of LPS-induced ROS in normal macrophages. Determination of ROS production in RAW264.7 cells was conducted using the non-toxic IC50 value of 10 µg/mL for all compounds (Table 2). Cells were pre-treated with compounds for 20 h and LPS was added in all treated cells except the untreated control cells. Thereafter H2DCFDA was introduced to the cells. […]
Figure 3 Effects of S. nigrescens compounds 1-6 on LPS-induced ROS production by RAW264.7 cells measured by a micro plate reader (Thermo Scientific Varioskan Flash). […] Experiments were conducted in triplicate and data is expressed as the mean ± SD with p-values calculated against control ^**p < 0.01; ^***p < 0.001

In the next assay the test system is LPS-induced ROS. Set-up: method as in PMID 18254591, PMID 30302324. The following applies: read-out: IC50, inhibition of LPS-induced ROS; cited from earlier work.
A further assay has as its system LPS-induced RNS. Set-up: method as in PMID 18254591, PMID 30302324. As to conditions: read-out: IC50, inhibition of LPS-induced RNS; cited from earlier work.

By MIC is commonly meant the lowest concentration found to suppress growth. `O=c1cc(-c2ccc(O)cc2)oc2c([C@@H]3O[C@H](CO)[C@@H](O)[C@H](O)[C@H]3O)c(O)cc(O)c12` [Apigenin-8-C-glucoside]: the MIC in the assay on S. aureus is 126 µg/mL (≈ 291 µM).
Broadly, the IC50 is the point on the concentration scale where inhibition reaches its midpoint. Read a high IC50 as weaker potency in that assay. As to `C=C(C=O)C1CCC2(C)CCC3(C)C(CCC4C5(C)CCC(O)C(C)(C)C5CCC43C)C12` (stereo not drawn) [Compound 1, 3β-hydroxy-20(29)-en-lupan-30-al], the IC50 with MDA-MB-231 cells stood at 26.6 µg/mL (≈ 60.5 µM); with RAW264.7 cells [1], 16.9 µg/mL (≈ 38.3 µM). Also, in assay [2], the MIC is no less than 250 µg/mL.
As for `C=C(CO)C1CCC2(C)CCC3(C)C(CCC4C5(C)CCC(O)C(C)(C)C5CCC43C)C12` (stereo not drawn) [Compound 2, 30-hydroxylup-20(29)-en-3β-ol], the results for the IC50 in the assay on MDA-MB-231 cells and in the assay with RAW264.7 cells [1] were 11.9 µg/mL (≈ 26.8 µM) and 22.8 µg/mL (≈ 51.5 µM), respectively. Also, in the assay on MDA-MB-231 cells, the “selectivity index (SI)” value is 1.92. The same compound gave an MIC in [2] of no less than 250 µg/mL.
`CC1=CC23CCC4C(C)(CO)CCCC4(CO)C2CCC1C3` (stereo not drawn) [Compound 3, ent-kaur-15-en-18,20-diol]: the MIC in assay [3] was 62.5 µg/mL (≈ 205 µM); in assay [4] it was 250 µg/mL (≈ 821 µM); in assay [5] it was 125 µg/mL (≈ 411 µM). The 50% inhibitory concentration (IC50) was found to be 12.6 µg/mL (≈ 41.4 µM) in the assay with MDA-MB-231 cells and 18.5 µg/mL (≈ 60.8 µM) in the assay with RAW264.7 cells [1]. Moreover, the “selectivity index (SI)” value in the assay on MDA-MB-231 cells was 1.46.
A word on the pIC50: it is −log10 of the IC50, conventionally taken in molar units. For `O=c1c(O)c(-c2ccc(O)c(O)c2)oc2c(O)c(O)ccc12` [Compound 4, melanoxetin], the values for the IC50 in the assay with MDA-MB-231 cells and in the assay with RAW264.7 cells [1] were 22.2 µg/mL (≈ 73.4 µM) and 15.8 µg/mL (≈ 52.3 µM), respectively. The “reduction of ROS” value in the assay on RAW264.7 cells [6] is reported as “approximately 40%”. Moreover, the pIC50 is 4.90 in the assay with LPS-induced ROS and 5.16 in the assay on LPS-induced RNS.
Take `O=c1c(O)c(-c2ccc(O)c(O)c2)oc2cc(O)cc(O)c12` [Compound 5, quercetin]: the results for the minimum inhibitory concentration (MIC) in assay [3], in [4] and in [5] were 31.2 µg/mL (≈ 103 µM), 62.5 µg/mL (≈ 207 µM) and 31.2 µg/mL (≈ 103 µM), respectively. Moreover, the figures for the IC50 in the assay on MDA-MB-231 cells and in the assay on RAW264.7 cells [1] were 20.6 µg/mL (≈ 68.2 µM) and 22.6 µg/mL (≈ 74.8 µM), respectively. Further, in the assay on MDA-MB-231 cells, the “selectivity index (SI)” value amounted to 1.09. Further, the ROS production level entry in the assay with RAW264.7 cells [6] is “below 50%”.
Take `COc1c(-c2ccc(O)c(O)c2)oc2cc(O)cc(O)c2c1=O` [Compound 6, quercetin-3-O-methyl ether]: the MIC turned out to be 31.2 µg/mL (≈ 98.8 µM) in assay [3], 62.5 µg/mL (≈ 198 µM) in [4] and 31.2 µg/mL (≈ 98.8 µM) in [5]. In addition, the results for the IC50 in the assay on MDA-MB-231 cells and in the assay on RAW264.7 cells [1] were 14 µg/mL (≈ 44.4 µM) and 28.7 µg/mL (≈ 90.8 µM), respectively. For the same compound, in the assay on MDA-MB-231 cells, the “selectivity index (SI)” value came out at 2.04. The ROS production level entry in the assay with RAW264.7 cells [6] is “below 50%”.
Turning to `COc1cccc2c1C(=O)c1c(O)c3c(c(O)c1C2=O)C[C@@](O)(C(=O)CO)C[C@@H]3O[C@H]1C[C@H](N)[C@H](O)[C@H](C)O1` [doxorubicin, reference compound], in the assay with MDA-MB-231 cells, the IC50 turned out to be 9.35 µg/mL (≈ 17.2 µM) and the “selectivity index (SI)” value is 1.13. Moreover, in the assay with RAW264.7 cells [1], the IC50 came out at 10.6 µg/mL (≈ 19.5 µM).
